Data published in publication PMC10415494, “Ga(III) pyridinecarboxylate complexes: potential analogues of the second generation of therapeutic Ga(III) complexes?” (Journal of Biological Inorganic Chemistry, 2023).
Where two headings read alike, the source gives them in different places.

Key:
[1] = test system: HepG2 (human liver cancer cell line); assay: MTT cell viability test; assay type: cell-based; details: after 48 h
Protocol: Prior to each experiment, cell viability was determined using an automated cell counter (Countess II FL, Thermo Fisher Scientific, USA). 50 μl of the HepG2 cell suspension was transferred into new tube and 12.5 μl of trypan blue was added. After one minute, 10 μl was taken from the prepared suspension to determine the number of viable cells in 1 ml. The automated cell counter determined the total number of viable cells and the percentage of viability. […] Cells (2 × 10^4/200 μl) were incubated in 96-well microtiter plates for 24 and 48 h in the presence of metal complexes, picolinic acid, and gallium(III) nitrate, at 37 °C in humified atmosphere with 5% CO2. The cells were centrifuged for 10 min at 2500 rpm and 20 °C, supernatant was removed and 180 μl of fresh serum-free medium was added. Then 10 μl of MTT solution with a concentration of 5 mg/ml was added and cells were incubated for next 2–3 h in the dark until a precipitate formed. After centrifugation and removal of supernatant 150 μl of DMSO was added to the cells to dissolve the precipitate. Absorbance at 540 nm was measured using a spectrophotometer.

[2] = test system: HepG2 cells; design: method as in PMID 16827101; details: after 6 days of treatment; read-out: antiproliferative effect IC50; cited from earlier work
[3] = Complex stability in biological testing medium by time-dependent 1H NMR; assay type: physicochemical; details: 300 K, over 96 h
Protocol: Nuclear magnetic resonance (NMR) data were collected on a Varian VNMRS 600 spectrometer operating at 599.87 MHz for ^1H. The concentration of all samples was approximately 3 mg/0.6 mL of 1% DMSO-d6/D2O. For comparison, the spectra of pure acids were also measured, while the pH of the solution of acids was adjusted to the same value as the solution of the complexes. The chemical shifts were referenced to the TSP (3-(trimethylsilyl)propionic-2,2,3,3-d4 acid sodium salt) peak (^1H NMR 0.00 ppm). The NMR data were recorded at 300 K, with chemical shifts δ reported in parts per million and coupling constants J in Hertz. All data were analysed using MestReNova 12.0.0 (2017) software. The stability in 1% DMSO-d6/D2O was determined for all samples. […]

[4] = test system: Candida parapsilosis (C. parapsilosis) ATCC 22019; assay: Antimicrobial activity, macrodilution method (yeast, growth by A590); assay type: cell-based; details: Yeast, Sabouraud's growth medium, 37 °C, read-out: IC50 C. parapsilosis
Protocol: (§1) The antimicrobial activities of gallium(III) complexes GaPic, GaDpic, GaChel, GaCldpic, free ligands (HPic, H2Dpic, H2Chel, H2Cldpic) and positive controls (cefoxitin (C), ampicillin (A) and piperacillin (P)) were evaluated by macrodilution method using G^+ bacteria (Firmicutes) Staphylococcus aureus (S. aureus) CCM 3953 (Czech Collection of Microorganisms), G^− bacteria (γ-proteobacteria) Escherichia coli (E. coli) CCM 3988, Pseudomonas aeruginosa (P. aeruginosa) CCM 1959 (Czech Collection of Microorganisms) and the yeast Candida parapsilosis (C. parapsilosis) ATCC 22019 (American type culture collection). Cultures of bacteria (in Mueller–Hinton broth, MHB) and yeasts (in Sabouraud’s growth medium, SB) were incubated under shaking (250 rpm) at 37 °C. The growth of bacteria and yeasts was evaluated by measuring the absorbance of the growing cultures (A590) until the cultures reached the stationary growth phase. The effects of gallium(III) complexes on the growth of filamentous fungi Rhizopus oryzae (R. oryzae) CCM F-8284, Alternaria alternata (A. alternata) CCM F-128 and Microsporum gypseum (M. gypseum) CCM F-8342 (Czech Collection of Microorganisms) were observed by macrodilution method on solidified potato-dextrose growth medium (PDA). During culturing, the diameters of growing fungal colonies were measured at regular intervals. Briefly, the antimicrobial activity (bacteria and yeasts) gallium(III) complexes/ ligands were added to the microbial culture at the beginning of the cultivation-to the lag phase. Pure gallium(III) complexes/ligands were dissolved in DMSO. The final concentration of DMSO never exceeded 1.0 vol. % neither in control nor treated samples. Concentration of gallium(III) complexes used in experimental work for evaluation of antimicrobial activity was used in the range of 0.05–2 mM, for the free ligands in the range of 0.5–2.0 mM in all experiments. […] The IC50 values were evaluated from toxicity curves. All the obtained results of antimicrobial activity were compared to the activity of Ga(NO3)3.

[5] = target: T1, bovine serum albumin (BSA) (Bos taurus, UniProt P02769); assay: BSA fluorescence quenching (Stern-Volmer); assay type: binding; details: 0.01 M PBS buffer pH 7.4, 25 °C, λex = 280 nm
T1 construct: purchased Sigma-Aldrich Chemicals
Protocol: Fluorescence measurements were carried out on a Varian Cary Eclipse spectrofluorometer. The quenching studies of BSA with the Ga(III) complexes were investigated to determine whether they were able to quench fluorescence of BSA. All measurements were performed at 25 °C in 0.01 M PBS buffer (pH 7.4). The fluorescence spectra were measured at an excitation wavelength of 280 nm, with a slit width of 10 nm for the excitation and emission beams, in the range of 300–450 nm and analysed according to the classical Stern–Volmer Equation: F0/F=1+KSVQ where F0 and F are the fluorescence intensities in the absence and the presence of the quencher, respectively, KSV is the Stern–Volmer constant, and [Q] is the concentration of quencher.

[6] = test system: Microsporum gypseum (M. gypseum) CCM F-8342; assay: Growth of filamentous fungi, macrodilution method on solidified PDA (colony diameter); assay type: cell-based; details: Filamentous fungi, solidified potato-dextrose growth medium, read-out: IC50 M. gypseum
Protocol: as §1

[7] = test system: Rhizopus oryzae (R. oryzae) CCM F-8284; assay: as above; assay type: cell-based; details: solidified potato-dextrose growth medium, read-out: IC50 R. oryzae
Protocol: as §1

[8] = test system: Alternaria alternata (A. alternata) CCM F-128; assay: as above; assay type: cell-based; details: Filamentous fungi, solidified potato-dextrose growth medium, read-out: IC50 A. alternata
Protocol: as §1

[9] = test system: Escherichia coli (E. coli) CCM 3988; assay: Antimicrobial activity, macrodilution method (growth by A590); assay type: cell-based; details: Bacteria, MHB, 37 °C, DMSO max 1.0 vol. %, read-out: IC50 E. coli
Protocol: as §1

[10] = test system: Staphylococcus aureus (S. aureus) CCM 3953; assay: as above; assay type: cell-based; details: for IC50: Bacteria, MHB, 37 °C, DMSO max 1.0 vol. %, read-out: IC50 S. aureus
Protocol: as §1

[11] = test system: Pseudomonas aeruginosa (P. aeruginosa) CCM 1959; assay: as above; assay type: cell-based; details: for IC50: Bacteria, MHB, 37 °C, DMSO max 1.0 vol. %, read-out: IC50 P. aeruginosa
Protocol: as §1

[12] = test system: human dermal fibroblasts (HDF); assay: in vitro
Protocol: (§2) Cell culture the cell lines A2058 (human metastatic melanoma), BLM (human metastatic melanoma), HCT116 (human colorectal carcinoma), HeLa (human cervical adenocarcinoma), Jurkat (human leukaemic T cell lymphoma). […] Cells were maintained in standard conditions with an atmosphere containing 5% CO2 at 37 °C.
(§3) The antiproliferative activity of Ga(III) complexes GaPic, GaDpic, GaChel, GaCldpic, free ligands (HPic, H2Dpic, H2Chel, H2Cldpic) and cisplatin (cisPt) were evaluated by colorimetric microculture MTS (3-(4,5-dimethylthiazol-2-yl)-5-(3-carboxymethoxyphenyl)-2-(4-sulfophenyl)-2H tetrazolium) assay (Promega, Madison, WI, USA). Cancer and non-cancer cells were seeded at density 5 × 10^3 cells/well in 96-well polystyrene microplates. Twenty-four hours after cell seeding, different concentrations (1.0—100.0 µM) of the compounds were tested. After 72 h of incubation, 10 µL of MTS was added to each well. After an additional 2 h, cell proliferation was evaluated by measuring of absorbance at wavelength 490 nm using the automated Cytation™ 3 Cell Imaging Multi-Mode Reader (Biotek, Winooski, VT, USA). The absorbance of control wells was taken as 100%, and the results were expressed as a percent of untreated control. IC50 values were calculated from MTS analyses.

[13] = test system: HeLa (human cervical adenocarcinoma); assay: MTS antiproliferative assay
Protocol: as §2, §3

[14] = test system: PaTu 8902 (human pancreatic adenocarcinoma); assay: MTS antiproliferative assay
Protocol: as §2, §3

[15] = test system: A2058 (human metastatic melanoma); assay: MTS antiproliferative assay
Protocol: as §2, §3

[16] = test system: MDA-MB-231 (human mammary gland adenocarcinoma); assay: MTS antiproliferative assay
Protocol: as §2, §3

[17] = test system: Jurkat (human leukaemic T cell lymphoma); assay: MTS antiproliferative assay
Protocol: as §2, §3

[18] = test system: HCT116 (human colorectal carcinoma); assay: MTS antiproliferative assay
Protocol: as §2, §3

[19] = test system: any model microorganism; assay: Antimicrobial activity, macrodilution method, all model microorganisms together; assay type: cell-based; details: free ligands, range 0.5–2.0 mM
Protocol: as §1, with “Cultures” for “The antimicrobial activities of gallium(III) complexes GaPic, GaDpic, GaChel, GaCldpic, free ligands (HPic, H2Dpic, H2Chel, H2Cldpic) and positive controls (cefoxitin (C), ampicillin (A) and piperacillin (P)) were evaluated by macrodilution method using G^+ bacteria (Firmicutes) Staphylococcus aureus (S. aureus) CCM 3953 (Czech Collection of Microorganisms), G^− bacteria (γ-proteobacteria) Escherichia coli (E. coli) CCM 3988, Pseudomonas aeruginosa (P. aeruginosa) CCM 1959 (Czech Collection of Microorganisms) and the yeast Candida parapsilosis (C. parapsilosis) ATCC 22019 (American type culture collection). Cultures”

[20] = in vitro; details: human
Protocol: as §2, §3

[21] = test system: cancer cell lines (A2780, MDA-MB-231, HCT116); design: method as in PMID 32354569; details: cited from earlier work
[22] = Lodderomyces parapsilosis, ATCC22019
[23] = Pseudomonas aeruginosa, CCM1959
[24] = Homo sapiens, HeLa, 72 h, read-out: Cytotoxic activity IC50 HeLa
[25] = Homo sapiens, PaTu 8902, 72 h, read-out: Cytotoxic activity IC50 PaTu 8902
[26] = Homo sapiens, A2058, 72 h, read-out: Cytotoxic activity IC50 A2058
[27] = Homo sapiens, MDA-MB-231, 72 h, read-out: Cytotoxic activity IC50 MDA-MB-231
[28] = Homo sapiens, Jurkat, 72 h, read-out: Cytotoxic activity IC50 Jurkat
[29] = Homo sapiens, HCT-116, 72 h, read-out: Cytotoxic activity IC50 HCT116

T1 sequence (P02769 25-607): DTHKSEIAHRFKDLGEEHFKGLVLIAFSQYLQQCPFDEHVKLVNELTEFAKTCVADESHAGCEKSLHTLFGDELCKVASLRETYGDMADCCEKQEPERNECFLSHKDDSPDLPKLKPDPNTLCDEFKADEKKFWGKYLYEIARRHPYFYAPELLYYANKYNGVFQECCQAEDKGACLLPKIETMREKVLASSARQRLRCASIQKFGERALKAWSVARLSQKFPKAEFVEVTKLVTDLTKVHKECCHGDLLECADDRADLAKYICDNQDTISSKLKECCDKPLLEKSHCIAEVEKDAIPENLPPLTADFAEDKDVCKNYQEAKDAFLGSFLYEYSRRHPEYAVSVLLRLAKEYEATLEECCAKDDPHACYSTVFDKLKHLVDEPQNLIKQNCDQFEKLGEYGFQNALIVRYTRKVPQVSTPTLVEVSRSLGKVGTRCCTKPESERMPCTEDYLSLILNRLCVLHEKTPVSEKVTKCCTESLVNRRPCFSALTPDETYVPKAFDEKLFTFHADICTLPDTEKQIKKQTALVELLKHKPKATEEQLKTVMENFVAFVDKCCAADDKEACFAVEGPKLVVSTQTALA

Structure (SMILES) | decrease in cell viability of HepG2 ([1]; 100 μM) | effect on the growth of any model microorganism [19] | IC50 [4, 22] | IC50 ([6]; Nannizzia gypsea) | IC50 ([7]; Rhizopus arrhizus) | IC50 ([8]; Alternaria alternata) | IC50 ([9]; Escherichia coli, CCM3988) | IC50 ([10]; Staphylococcus aureus, CCM3953) | IC50 [11, 23] | IC50 [13, 24] | IC50 [14, 25] | IC50 [15, 26] | IC50 [16, 27] | IC50 [17, 28] | IC50 [18, 29] | other results
O=C([O-])c1ccccn1.[Ag+] [AgPic] | 40% | – | – | – | – | – | – | – | – | – | – | – | – | – | – | decrease in cell viability of HepG2 ([1]; 75 μM): 45%
Cc1occc(=O)c1[O-].Cc1occc(=O)c1[O-].Cc1occc(=O)c1[O-].[Ga+3] [GaM, Ga(III) maltolate] | – | – | – | – | – | – | – | – | – | – | – | – | – | – | – | IC50 [2]: 25 to 35 µM
O.O=C([O-])c1ccccn1.O=C([O-])c1ccccn1.O=C([O-])c1ccccn1.[Ga+3] [GaPic, [Ga(Pic)3]·H2O] | 28% | – | – | – | – | – | – | – | – | – | – | – | – | – | – | stability in 1% DMSO-d6/D2O solution [3]: does not decompose; IC50 [4]: > 2000 µM; Stern–Volmer binding constant Ksv BSA [5]: 46700 M⁻¹; IC50 [6]: > 2000 µM; IC50 [7]: > 2000 µM; IC50 [8]: > 2000 µM; IC50 [9]: > 2000 µM; IC50 [10]: 2000 µM; inhibition of S. aureus growth ([10]; complex at 2 mM): 50%; IC50 [11]: 50 µM; MIC100 (MIC) P. aeruginosa ([11]; growth fully inhibited (100%)): 500 µM; IC50 [12]: 231 ± 23.8 µM; IC50 [13]: 1530 ± 108 µM; IC50 [14]: 271 ± 34.3 µM; IC50 [15]: 187 ± 12.2 µM; IC50 [16]: 152 ± 74.3 µM; IC50 [17]: 175 ± 47.7 µM; IC50 [18]: 995 ± 27.5 µM
O=C(O)c1cc(O)cc(C(=O)O)n1 [H2Chel, chelidamic acid] | – | did not affect the growth | > 500 µM | > 500 µM | > 500 µM | > 500 µM | > 500 µM | > 500 µM | > 500 µM | > 200 µM | > 200 µM | > 200 µM | > 200 µM | > 200 µM | > 200 µM | IC50 at 72 h [20]: > 200 µM
O=C(O)c1cc(Cl)cc(C(=O)O)n1 [H2Cldpic, 4-chlorodipicolinic acid] | – | did not affect the growth | > 500 µM | > 500 µM | > 500 µM | > 500 µM | > 500 µM | > 500 µM | > 500 µM | > 200 µM | > 200 µM | > 200 µM | > 200 µM | > 200 µM | > 200 µM | IC50 at 72 h ([20]; human dermal fibroblasts (HDF)): > 200 µM
CO.[Ga+3].[O-]c1ccc(Cl)c2cccnc12.[O-]c1ccc(Cl)c2cccnc12.[O-]c1ccc(Cl)c2cccnc12 [[Ga(ClQ)3]⋅MeOH] | – | – | – | – | – | – | – | – | – | – | – | – | – | – | – | activity of the Ga(III) complex relative to the activity of H-ClQ [21]: at least 2.5 times
